# Measured values published in patent US20250019410A1, “PROCESS FOR THE PREPARATION OF TIRZEPATIDE OR PHARMACEUTICALLY ACCEPTABLE SALT THEREOF” (Sun Pharmaceutical Industries Ltd., priority 2021, published 2025).
# Assay type: physicochemical
# Procedure: The solubility of the salts in water (see Table 3), methanol (see Table 4) and phosphate buffer (see Table 5) were tested.
row,SMILES,Solubility - in Water (descriptive term only)
1,CC[C@H](C)[C@H](NC(=O)[C@H](CC(C)C)NC(=O)[C@H](Cc1c[nH]c2ccccc12)NC(=O)[C@H](CCC(N)=O)NC(=O)[C@@H](NC(=O)[C@H](Cc1ccccc1)NC(=O)[C@H](C)NC(=O)[C@H](CCCCNC(=O)COCCOCCNC(=O)COCCOCCNC(=O)CC[C@H](NC(=O)CCCCCCCCCCCCCCCCCCC(=O)O)C(=O)O)NC(=O)[C@H](CCC(N)=O)NC(=O)[C@H](C)NC(=O)[C@@H](NC(=O)[C@H](CCCCN)NC(=O)[C@H](CC(=O)O)NC(=O)[C@H](CC(C)C)NC(=O)C(C)(C)NC(=O)[C@@H](NC(=O)[C@H](CO)NC(=O)[C@H](Cc1ccc(O)cc1)NC(=O)[C@H](CC(=O)O)NC(=O)[C@H](CO)NC(=O)[C@@H](NC(=O)[C@H](Cc1ccccc1)NC(=O)[C@@H](NC(=O)CNC(=O)[C@H](CCC(=O)O)NC(=O)C(C)(C)NC(=O)[C@@H](N)Cc1ccc(O)cc1)[C@@H](C)O)[C@@H](C)O)[C@@H](C)CC)[C@@H](C)CC)C(C)C)C(=O)N[C@@H](C)C(=O)NCC(=O)NCC(=O)N1CCC[C@H]1C(=O)N[C@@H](CO)C(=O)N[C@@H](CO)C(=O)NCC(=O)N[C@@H](C)C(=O)N1CCC[C@H]1C(=O)N1CCC[C@H]1C(=O)N1CCC[C@H]1C(=O)N[C@@H](CO)C(N)=O [Acetic acid content - 1.06%],Practically insoluble in water
2,CC[C@H](C)[C@H](NC(=O)[C@H](CC(C)C)NC(=O)[C@H](Cc1c[nH]c2ccccc12)NC(=O)[C@H](CCC(N)=O)NC(=O)[C@@H](NC(=O)[C@H](Cc1ccccc1)NC(=O)[C@H](C)NC(=O)[C@H](CCCCNC(=O)COCCOCCNC(=O)COCCOCCNC(=O)CC[C@H](NC(=O)CCCCCCCCCCCCCCCCCCC(=O)O)C(=O)O)NC(=O)[C@H](CCC(N)=O)NC(=O)[C@H](C)NC(=O)[C@@H](NC(=O)[C@H](CCCCN)NC(=O)[C@H](CC(=O)O)NC(=O)[C@H](CC(C)C)NC(=O)C(C)(C)NC(=O)[C@@H](NC(=O)[C@H](CO)NC(=O)[C@H](Cc1ccc(O)cc1)NC(=O)[C@H](CC(=O)O)NC(=O)[C@H](CO)NC(=O)[C@@H](NC(=O)[C@H](Cc1ccccc1)NC(=O)[C@@H](NC(=O)CNC(=O)[C@H](CCC(=O)O)NC(=O)C(C)(C)NC(=O)[C@@H](N)Cc1ccc(O)cc1)[C@@H](C)O)[C@@H](C)O)[C@@H](C)CC)[C@@H](C)CC)C(C)C)C(=O)N[C@@H](C)C(=O)NCC(=O)NCC(=O)N1CCC[C@H]1C(=O)N[C@@H](CO)C(=O)N[C@@H](CO)C(=O)NCC(=O)N[C@@H](C)C(=O)N1CCC[C@H]1C(=O)N1CCC[C@H]1C(=O)N1CCC[C@H]1C(=O)N[C@@H](CO)C(N)=O [Ammonium content- 0.25%],practically insoluble in water
